# pIC50: −log10 of the molar value.
# System: 349418-098-R-PDC complex spheroid growth
# Assay: Anticancer human tumor 349418-098-R-PDC patient-derived lung adenocarcinoma cell line growth inhibition [AhR]
# Conditions: for pIC50: curve of first compound; for viability, T/C: stronger effect = lower value
# Procedure, shortened: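 Spheroids combined tumor cells with HUVEC endothelial cells and human MSCs as stroma. AhR antagonists were paired with standard or investigational drugs, each dosed in half-log steps down from near clinical Cmax, or from 10 microM where Cmax was unknown.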
# [1] = second compound 0.1 µM, first compound 0.0316 µM
# [2] = second compound 0.1 µM, first compound 0.1 µM
# [3] = second compound 0.1 µM, first compound 0.316 µM
# [4] = second compound 0.1 µM, first compound 1 µM
# [5] = second compound 0.316 µM, first compound 0.0316 µM
# [6] = second compound 0.316 µM, first compound 0.1 µM
# [7] = second compound 0.316 µM, first compound 0.316 µM
# [8] = second compound 0.316 µM, first compound 1 µM
# [9] = second compound 1 µM, first compound 0.0316 µM
# [10] = second compound 1 µM, first compound 0.1 µM
# [11] = second compound 1 µM, first compound 0.316 µM
# [12] = second compound 1 µM, first compound 1 µM
# [13] = second compound 3.16 µM, first compound 0.0316 µM
# [14] = second compound 3.16 µM, first compound 0.1 µM
# [15] = second compound 3.16 µM, first compound 0.316 µM
# [16] = second compound 3.16 µM, first compound 1 µM
# [17] = second compound 10 µM, first compound 0.0316 µM
# [18] = second compound 10 µM, first compound 0.1 µM
# [19] = second compound 10 µM, first compound 0.316 µM
# [20] = second compound 10 µM, first compound 1 µM
# [21] = second compound 0.1 µM, first compound 3.16 µM
# [22] = second compound 0.1 µM, first compound 10 µM
# [23] = second compound 0.316 µM, first compound 3.16 µM
# [24] = second compound 0.316 µM, first compound 10 µM
# [25] = second compound 1 µM, first compound 3.16 µM
# [26] = second compound 1 µM, first compound 10 µM
# [27] = second compound 3.16 µM, first compound 3.16 µM
# [28] = second compound 3.16 µM, first compound 10 µM
# [29] = second compound 10 µM, first compound 3.16 µM
# [30] = second compound 10 µM, first compound 10 µM
# [31] = second compound 0.1 µM, first compound 0.00949 µM
# [32] = second compound 0.1 µM, first compound 0.03 µM
# [33] = second compound 0.1 µM, first compound 0.0949 µM
# [34] = second compound 0.1 µM, first compound 0.3 µM
# [35] = second compound 0.316 µM, first compound 0.00949 µM
# [36] = second compound 0.316 µM, first compound 0.03 µM
# [37] = second compound 0.316 µM, first compound 0.0949 µM
# [38] = second compound 0.316 µM, first compound 0.3 µM
# [39] = second compound 1 µM, first compound 0.00949 µM
# [40] = second compound 1 µM, first compound 0.03 µM
# [41] = second compound 1 µM, first compound 0.0949 µM
# [42] = second compound 1 µM, first compound 0.3 µM
# [43] = second compound 3.16 µM, first compound 0.00949 µM
# [44] = second compound 3.16 µM, first compound 0.03 µM
# [45] = second compound 3.16 µM, first compound 0.0949 µM
# [46] = second compound 3.16 µM, first compound 0.3 µM
# [47] = second compound 10 µM, first compound 0.00949 µM
# [48] = second compound 10 µM, first compound 0.03 µM
# [49] = second compound 10 µM, first compound 0.0949 µM
# [50] = second compound 10 µM, first compound 0.3 µM
# 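Also: spheroids exposed to agents for seven days before luminescence viability read.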
# 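For viability, T/C in this document: spheroids also contain HUVEC endothelial cells and human MSC stroma.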
smiles,measurement,setting,value
CC1COCCN1c1cc(-c2ccnn2C)c2ccnc(-c3ccn[nH]3)c2n1 (stereo not given) + Cc1cncc(-c2nc(NCCc3c[nH]c4ccccc34)c3ncn(C(C)C)c3n2)c1,pIC50,second compound 0.1 µM,6.82
same,pIC50,second compound 0.316 µM,6.82
same,pIC50,second compound 1 µM,7.00
same,pIC50,second compound 3.16 µM,> 8.50
same,pIC50,second compound 10 µM,> 8.50
same,"viability, T/C","second compound 0.1 µM, first compound 0.00316 µM",105%
same,"viability, T/C","second compound 0.1 µM, first compound 0.01 µM",105%
same,"viability, T/C",[1],99.7%
same,"viability, T/C",[2],71.6%
same,"viability, T/C",[3],13.1%
same,"viability, T/C",[4],7.48%
same,"viability, T/C","second compound 0.316 µM, first compound 0.00316 µM",90.9%
same,"viability, T/C","second compound 0.316 µM, first compound 0.01 µM",92.4%
same,"viability, T/C",[5],91.4%
same,"viability, T/C",[6],68.5%
same,"viability, T/C",[7],15.7%
same,"viability, T/C",[8],7.2%
same,"viability, T/C","second compound 1 µM, first compound 0.00316 µM",74.1%
same,"viability, T/C","second compound 1 µM, first compound 0.01 µM",81.4%
same,"viability, T/C",[9],81.5%
same,"viability, T/C",[10],50.1%
same,"viability, T/C",[11],13.2%
same,"viability, T/C",[12],8.54%
same,"viability, T/C","second compound 3.16 µM, first compound 0.00316 µM",14.2%
same,"viability, T/C","second compound 3.16 µM, first compound 0.01 µM",15.1%
same,"viability, T/C",[13],12.4%
same,"viability, T/C",[14],7.18%
same,"viability, T/C",[15],6.8%
same,"viability, T/C",[16],5.72%
same,"viability, T/C","second compound 10 µM, first compound 0.00316 µM",0.74%
same,"viability, T/C","second compound 10 µM, first compound 0.01 µM",0.66%
same,"viability, T/C",[17],0.7%
same,"viability, T/C",[18],0.73%
same,"viability, T/C",[19],0.69%
same,"viability, T/C",[20],1.49%
CC1COCCN1c1cc(C2(S(C)(=N)=O)CC2)nc(-c2ccnc3[nH]ccc23)n1 (stereo not given) + Cc1cncc(-c2nc(NCCc3c[nH]c4ccccc34)c3ncn(C(C)C)c3n2)c1,pIC50,second compound 0.1 µM,5.27
same,pIC50,second compound 0.316 µM,5.38
same,pIC50,second compound 1 µM,5.37
same,pIC50,second compound 3.16 µM,> 7.50
same,pIC50,second compound 10 µM,> 7.50
same,"viability, T/C",[1],90.9%
same,"viability, T/C",[2],97%
same,"viability, T/C",[3],93.9%
same,"viability, T/C",[4],99.3%
same,"viability, T/C",[21],75.3%
same,"viability, T/C",[22],20%
same,"viability, T/C",[5],90.1%
same,"viability, T/C",[6],94.2%
same,"viability, T/C",[7],95.5%
same,"viability, T/C",[8],89.9%
same,"viability, T/C",[23],61.4%
same,"viability, T/C",[24],13.6%
same,"viability, T/C",[9],78.7%
same,"viability, T/C",[10],72.9%
same,"viability, T/C",[11],85.2%
same,"viability, T/C",[12],73.4%
same,"viability, T/C",[25],61.9%
same,"viability, T/C",[26],15.7%
same,"viability, T/C",[13],15.7%
same,"viability, T/C",[14],15.9%
same,"viability, T/C",[15],12.6%
same,"viability, T/C",[16],12.1%
same,"viability, T/C",[27],8.67%
same,"viability, T/C",[28],7.34%
same,"viability, T/C",[17],2.06%
same,"viability, T/C",[18],2.37%
same,"viability, T/C",[19],2.46%
same,"viability, T/C",[20],2.04%
same,"viability, T/C",[29],2.07%
same,"viability, T/C",[30],2.16%
COc1ccc([C@@H](O)c2cc(-c3ncnc4cc(N5CCOCC5)ccc34)c(F)cc2Cl)nn1 + Cc1cncc(-c2nc(NCCc3c[nH]c4ccccc34)c3ncn(C(C)C)c3n2)c1,pIC50,second compound 0.1 µM,5.40
same,pIC50,second compound 0.316 µM,5.40
same,pIC50,second compound 1 µM,5.42
same,pIC50,second compound 3.16 µM,> 7.50
same,pIC50,second compound 10 µM,> 7.50
same,"viability, T/C",[1],100%
same,"viability, T/C",[2],101%
same,"viability, T/C",[3],92.5%
same,"viability, T/C",[4],88.8%
same,"viability, T/C",[21],58.1%
same,"viability, T/C",[22],16.8%
same,"viability, T/C",[5],103%
same,"viability, T/C",[6],94.7%
same,"viability, T/C",[7],89.9%
same,"viability, T/C",[8],93.3%
same,"viability, T/C",[23],58.8%
same,"viability, T/C",[24],14.1%
same,"viability, T/C",[9],81%
same,"viability, T/C",[10],79.7%
same,"viability, T/C",[11],80.5%
same,"viability, T/C",[12],68.2%
same,"viability, T/C",[25],57.9%
same,"viability, T/C",[26],19.4%
same,"viability, T/C",[13],16.5%
same,"viability, T/C",[14],16.7%
same,"viability, T/C",[15],12.7%
same,"viability, T/C",[16],12.5%
same,"viability, T/C",[27],11.9%
same,"viability, T/C",[28],9.7%
same,"viability, T/C",[17],0.93%
same,"viability, T/C",[18],0.92%
same,"viability, T/C",[19],1.03%
same,"viability, T/C",[20],1.37%
same,"viability, T/C",[29],1.91%
same,"viability, T/C",[30],3.18%
Nc1ncn(C2CC(O)C(CO)S2)c(=O)n1 (stereo not given) + Cc1cncc(-c2nc(NCCc3c[nH]c4ccccc34)c3ncn(C(C)C)c3n2)c1,pIC50,second compound 0.1 µM,6.88
same,pIC50,second compound 0.316 µM,6.88
same,pIC50,second compound 1 µM,> 9.02
same,pIC50,second compound 3.16 µM,7.12
same,pIC50,second compound 10 µM,> 9.02
same,"viability, T/C","second compound 0.1 µM, first compound 0.000949 µM",102%
same,"viability, T/C","second compound 0.1 µM, first compound 0.003 µM",96.7%
same,"viability, T/C",[31],90.8%
same,"viability, T/C",[32],74.5%
same,"viability, T/C",[33],59.3%
same,"viability, T/C",[34],30.7%
same,"viability, T/C","second compound 0.316 µM, first compound 0.000949 µM",88.6%
same,"viability, T/C","second compound 0.316 µM, first compound 0.003 µM",93.7%
same,"viability, T/C",[35],83%
same,"viability, T/C",[36],71.4%
same,"viability, T/C",[37],59.1%
same,"viability, T/C",[38],31.8%
same,"viability, T/C","second compound 1 µM, first compound 0.000949 µM",47.5%
same,"viability, T/C","second compound 1 µM, first compound 0.003 µM",42.5%
same,"viability, T/C",[39],38.9%
same,"viability, T/C",[40],37.6%
same,"viability, T/C",[41],30.4%
same,"viability, T/C",[42],24%
same,"viability, T/C","second compound 3.16 µM, first compound 0.000949 µM",70%
same,"viability, T/C","second compound 3.16 µM, first compound 0.003 µM",86.3%
same,"viability, T/C",[43],94.6%
same,"viability, T/C",[44],73.6%
same,"viability, T/C",[45],44.7%
same,"viability, T/C",[46],30.6%
same,"viability, T/C","second compound 10 µM, first compound 0.000949 µM",2.25%
same,"viability, T/C","second compound 10 µM, first compound 0.003 µM",2.66%
same,"viability, T/C",[47],2.49%
same,"viability, T/C",[48],2.15%
same,"viability, T/C",[49],2.02%
same,"viability, T/C",[50],2.32%
O=C(C=Cn1cnc(-c2cc(C(F)(F)F)cc(C(F)(F)F)c2)n1)NNc1cnccn1 + Cc1cncc(-c2nc(NCCc3c[nH]c4ccccc34)c3ncn(C(C)C)c3n2)c1,pIC50,second compound 0.1 µM,7.21
same,pIC50,second compound 0.316 µM,7.10
same,pIC50,second compound 1 µM,7.30
same,pIC50,second compound 3.16 µM,> 8.02
same,pIC50,second compound 10 µM,> 8.02
same,"viability, T/C",[31],109%
same,"viability, T/C",[32],76.7%
same,"viability, T/C",[33],34.4%
same,"viability, T/C",[34],10.9%
same,"viability, T/C","second compound 0.1 µM, first compound 0.949 µM",7.84%
same,"viability, T/C","second compound 0.1 µM, first compound 3 µM",4.75%
same,"viability, T/C",[35],103%
same,"viability, T/C",[36],89.4%
same,"viability, T/C",[37],42.3%
same,"viability, T/C",[38],11.7%
same,"viability, T/C","second compound 0.316 µM, first compound 0.949 µM",7.07%
same,"viability, T/C","second compound 0.316 µM, first compound 3 µM",4.9%
same,"viability, T/C",[39],95.8%
same,"viability, T/C",[40],69.8%
same,"viability, T/C",[41],25.5%
same,"viability, T/C",[42],9.9%
same,"viability, T/C","second compound 1 µM, first compound 0.949 µM",9.14%
same,"viability, T/C","second compound 1 µM, first compound 3 µM",5.61%
same,"viability, T/C",[43],31.8%
same,"viability, T/C",[44],20.6%
same,"viability, T/C",[45],14.7%
same,"viability, T/C",[46],8.17%
same,"viability, T/C","second compound 3.16 µM, first compound 0.949 µM",7.95%
same,"viability, T/C","second compound 3.16 µM, first compound 3 µM",5.5%
same,"viability, T/C",[47],3.16%
same,"viability, T/C",[48],2.76%
same,"viability, T/C",[49],2.56%
same,"viability, T/C",[50],2.42%
same,"viability, T/C","second compound 10 µM, first compound 0.949 µM",1.78%
same,"viability, T/C","second compound 10 µM, first compound 3 µM",1.96%
